Source: ChEMBL document CHEMBL1201862, “PubChem BioAssay data set” (2004)
Values joined by “and” are separate entries in the source; they are usually repeats but may differ in a detail not shown here. Equal entries are not always repeated.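 Each compound was tested at five concentrations against cells in 96-well plates for 48 hours. GI50 marks 50% less growth.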 Active and inactive are the calls of the source. No stated cut-off is given here; in the data, active = GI50 up to about 1.1 µM and inactive = higher.

Assays:
Experiment in all cases: NCI tumour cell line growth inhibition, 48 h
[1] = tested on: A549
[2] = tested on: ACHN
[3] = tested on: OVCAR-8
[4] = tested on: M19-MEL
[5] = tested on: MOLT-4
[6] = tested on: SNB-75
[7] = tested on: A498
[8] = tested on: U-251
[9] = tested on: RXF 393
[10] = tested on: UO-31
[11] = tested on: UACC-257
[12] = tested on: DMS-114
[13] = tested on: NCI-H226
[14] = tested on: DLD-1
[15] = tested on: HL-60
[16] = tested on: 786-0
[17] = tested on: TK-10
[18] = tested on: SN12C
[19] = tested on: UACC-62
[20] = tested on: SR
[21] = tested on: HOP-18
[22] = tested on: IGROV-1
[23] = tested on: DMS-273
[24] = tested on: Malme-3M
[25] = tested on: HCT-15
[26] = tested on: RPMI-8226
[27] = tested on: K562
[28] = tested on: CAKI-1
[29] = tested on: SNB-19
[30] = tested on: SK-MEL-2
[31] = tested on: KM-20L2
[32] = tested on: SF-539
[33] = tested on: HOP-62
[34] = tested on: OVCAR-4
[35] = tested on: OVCAR-3
[36] = tested on: HCC 2998
[37] = tested on: SK-OV-3
[38] = tested on: SW-620
[39] = tested on: COLO 205
[40] = tested on: HCT-116
[41] = tested on: CCRF-CEM
[42] = tested on: SF-268
[43] = tested on: SNB-78
[44] = tested on: SK-MEL-28
[45] = tested on: M14
[46] = tested on: NCI-H522
[47] = tested on: XF498
[48] = tested on: SF-295
[49] = tested on: OVCAR-5
[50] = tested on: LOX IMVI
[51] = tested on: NCI-H460
[52] = tested on: BT-549
[53] = tested on: MCF7
[54] = tested on: NCI-H23
[55] = tested on: HT-29
[56] = tested on: DU-145
[57] = tested on: MDA-MB-435
[58] = tested on: HOP-92
[59] = tested on: Hs-578T
[60] = tested on: EKVX
[61] = tested on: KM12
[62] = tested on: MDA-MB-231
[63] = tested on: NCI/ADR-RES
[64] = tested on: PC-3
[65] = tested on: SK-MEL-5
[66] = tested on: T47D
[67] = tested on: MDA-N

Measured: GI50

CCOC(=O)CN(c1ccccc1)c1nc(=[N+](C)C)ss1
active: [4] 0.303 µM | [12] 0.309 µM | [20] 0.678 µM | [23] 318 nM | [35] 0.284 µM | [41] 0.979 µM | [46] 0.24 µM
inactive: [1] 30.4 µM | [2] 35.7 µM | [3] 20 µM | [5] 1.77 µM | [6] 29 µM | [7] 42.5 µM | [8] 17.9 µM | [9] 10.5 µM | [10] 23.7 µM | [11] 24.3 µM | [13] 23.8 µM | [14] 6.93 µM | [15] 13.1 µM | [16] 37.9 µM | [17] 47.4 µM | [18] 17.9 µM | [19] 26.9 µM | [21] 53 µM | [22] > 10 µM | [24] 21.2 µM | [26] 1.19 µM | [27] 6.78 µM | [28] 50.9 µM | [29] 61.9 µM | [30] 19.8 µM | [31] 54.7 µM | [32] 40.1 µM | [33] 33 µM | [34] 17.7 µM | [36] 41.1 µM | [37] 85.1 µM | [38] 53.1 µM | [39] 2.06 µM | [40] 5.65 µM | [42] 45.2 µM | [43] 32.4 µM | [44] 26.4 µM | [45] 32.4 µM
16.4 µM: [25]

C=CN1C(=O)OC(c2ccccc2)C1c1ccccc1 (stereo not given)
inactive: [8] 54.7 µM and > 31.6 µM | [15] > 31.6 µM and 45.2 µM | [47] > 10 µM | [48] > 100 µM and > 99.3 µM | [20] > 100 µM | [23] 57.4 µM and > 31.6 µM | [27] > 31.6 µM and 40.5 µM | [49] > 100 µM | [32] 61.1 µM and > 31.6 µM | [38] 40.7 µM and > 31.6 µM | [50] 49.1 µM and > 78.5 µM

O=C1C([P+](c2ccccc2)(c2ccccc2)c2ccccc2)=C([O-])C(=Cc2ccc(Cl)c(Cl)c2)C([O-])=C1[P+](c1ccccc1)(c1ccccc1)c1ccccc1
active: [5] 0.421 µM | [15] 0.735 µM | [20] 0.925 µM | [41] 0.465 µM | [50] 1.06 µM
4.79 µM: [25]
inactive: [51] 2.89 µM | [1] 2.62 µM | [2] 2.8 µM | [3] 2.23 µM | [52] 2.27 µM | [53] 1.46 µM | [6] 4.02 µM | [7] 15.1 µM | [8] 2.47 µM | [54] 3.51 µM | [9] 1.71 µM | [55] 1.91 µM | [56] 7.67 µM | [10] 3.75 µM | [11] 2.43 µM | [13] 3.44 µM | [16] 2.14 µM | [17] 2.71 µM | [18] 2.43 µM | [19] 2.23 µM | [48] 2.65 µM | [57] 2.3 µM | [22] 2.62 µM | [58] 2.34 µM | [24] 2.34 µM | [26] 1.22 µM | [59] 4.02 µM | [27] 1.6 µM | [60] 2.47 µM | [28] 2.18 µM | [29] 3.16 µM | [49] 3.56 µM | [30] 2.44 µM | [61] 2.01 µM | [62] 2.96 µM | [32] 2.55 µM | [33] 3.54 µM | [34] 2.97 µM | [35] 1.99 µM | [63] 8.71 µM | [36] 2.93 µM | [64] 1.71 µM | [37] 1.93 µM | [65] 2.34 µM | [38] 2.17 µM | [39] 1.73 µM | [40] 1.68 µM | [42] 1.72 µM | [44] 2.49 µM | [45] 2.38 µM | [46] 1.8 µM | [66] 3.37 µM | [67] 1.9 µM

CO/C(=N\N=C\c1cccc(C(F)(F)F)c1)c1ccncc1
inactive: [51] 4.97 µM | [1] 8.09 µM | [2] 8.13 µM | [3] 9.46 µM | [52] 7.13 µM | [5] 5.21 µM | [53] 2.52 µM | [6] 15.5 µM | [7] 9.91 µM | [8] 5.14 µM | [54] 12 µM | [9] 6.64 µM | [55] 4.62 µM | [56] 7.85 µM | [10] 4.47 µM | [11] 14 µM | [13] 3.56 µM | [15] 2.83 µM | [16] 5.77 µM | [17] 17.5 µM | [18] 3.67 µM | [19] 4.28 µM | [48] 1.76 µM | [57] 2.32 µM | [20] 5.75 µM | [22] 10 µM | [58] 23.3 µM | [24] 4.6 µM | [26] 2.37 µM | [59] 5.93 µM | [27] 3.94 µM | [60] 13.8 µM | [28] 1.8 µM | [29] 9.08 µM | [49] 32.5 µM | [30] 2.89 µM | [61] 5.19 µM | [62] 7.14 µM | [32] 4.67 µM | [33] 2.93 µM | [34] 41 µM | [35] 10.7 µM | [63] 1.82 µM | [36] 6.41 µM | [64] 40.7 µM | [37] 6.89 µM | [65] 11.4 µM | [38] 4.6 µM | [39] 13.5 µM | [40] 5.52 µM | [41] 4.62 µM | [42] 8.05 µM | [44] 24.3 µM | [45] 6.3 µM | [46] 5.45 µM | [66] 37.2 µM | [50] 7.76 µM | [67] 2.13 µM
2.45 µM: [25]
